Data as given in publication PMC12090182, “Repurposing of the RIPK1-Selective Benzo[1,4]oxazepin-4-one Scaffold for the Development of a Type III LIMK1/2 Inhibitor” (ACS Chemical Biology, 2025).
Where two headings read alike, the source gives them in different places.

What was measured:
Format in all cases: cell-based
HEK293T cells = conditions: human
Protocol: (§1) To assess the influence on cell health, a high-content screening in living cells called the multiplex high-content assay, as described previously by Tjaden et al., was performed.[38] In brief, HEK293T (ATCC CRL-1573) and U2OS (ATCCHTB-96) were cultured in DMEM plus L-glutamine (high glucose) supplemented by 10% FBS (Gibco) and penicillin/streptomycin (Gibco). MRC-9 fibroblasts ([…]) were cultured in EMEM plus L-glutamine supplemented by 10% FBS (Gibco) and penicillin/streptomycin (Gibco). Cells were seeded at a density of 1250 cells per well in a 384-well plate in a culture medium (cell culture microplate, PS, f-bottom, μClear, 781091, Greiner), with a volume of 50 μL per well. All outer wells were filled with 100 μL of PBS buffer (Gibco). […] The cell shape and fluorescence were measured before treatment and 12, 24, and 48 h after compound treatment using the CQ1 high-content confocal microscope (Yokogawa, Musashino, Japan). […] The compounds were tested at 1 and 10 μM, respectively. Acquired images of the cells were processed using Yokogawa CellPathfinder software (v3.04.02.02). […] Results were normalized to cells exposed to 0.1% DMSO. All compounds were tested in biological duplicates, and SEM (standard error of mean) was calculated of biological duplicates.

U2OS cells = conditions: human, 24 h, 1 µM
Protocol: as §1

MRC-9 cells = experiment: Multiplex high-content viability assessment; conditions: human fibroblast
Protocol: as §1

[1] = 1 µM, 0 h, biological replicate 1
[2] = 1 µM, 12 h, biological replicate 1
[3] = 1 µM, 24 h, biological replicate 1
[4] = 1 µM, 48 h, biological replicate 1
[5] = 1 µM, 0 h after treatment, biological replicate 2
[6] = 1 µM, 12 h after treatment, biological replicate 2
[7] = 1 µM, 24 h after treatment, biological replicate 2
[8] = 1 µM, 48 h after treatment, biological replicate 2
[9] = 10 µM, 0 h, biological replicate 1
[10] = 10 µM, 12 h, biological replicate 1
[11] = 10 µM, 24 h, biological replicate 1
[12] = 10 µM, 48 h, biological replicate 1
[13] = 10 µM, 0 h after treatment, biological replicate 2
[14] = 10 µM, 12 h after treatment, biological replicate 2
[15] = 10 µM, 24 h after treatment, biological replicate 2
[16] = 10 µM, 48 h after treatment, biological replicate 2

- Population with membrane disruption (%) (HEK293T cells; 0 h, 1 µM): 0.00%
- Population with membrane disruption (%) (HEK293T cells; 0 h, 10 µM): 0.00%
- Population with membrane disruption (%) (HEK293T cells; 24 h, 10 µM): 0.00%
- Cell count per well (U2OS cells): 316
SMILES: CCCCN(Cc1ccccc1)C(=O)c1ccc(S(=O)(=O)Nc2ccccc2)cc1 [TH257]
- Cell count normalized to cells treated with DMSO control (MRC-9 cells; [1]): 1.114
- Cell count per well (MRC-9 cells; [1]): 167
- Population Fragmented Nuclei (%) (MRC-9 cells; [1]): 8.59%
- Population Healthy Nuclei (%) (MRC-9 cells; [1]): 70.55%
- Population Pyknosed Nuclei (%) (MRC-9 cells; [1]): 20.86%
- Population apoptotic cell (%) (MRC-9 cells; [1]): 41.18%
- Population cell that influence microtubule strucutre (%) (MRC-9 cells; [1]): 18.26%
- Population with increased mitochondrial mass (%) (MRC-9 cells; [1]): 10.43%
- Population with membrane disruption (%) (MRC-9 cells; [1]): 0.87%
- Cell count normalized to cells treated with DMSO control (MRC-9 cells; [2]): 1.0759
- Cell count per well (MRC-9 cells; [2]): 162
- Population Fragmented Nuclei (%) (MRC-9 cells; [2]): 8.18%
- Population Healthy Nuclei (%) (MRC-9 cells; [2]): 74.84%
- Population Pyknosed Nuclei (%) (MRC-9 cells; [2]): 16.98%
- Population apoptotic cell (%) (MRC-9 cells; [2]): 37.04%
- Population cell that influence microtubule strucutre (%) (MRC-9 cells; [2]): 23.53%
- Population with increased mitochondrial mass (%) (MRC-9 cells; [2]): 5.88%
- Population with membrane disruption (%) (MRC-9 cells; [2]): 1.68%
- Cell count normalized to cells treated with DMSO control (MRC-9 cells; [3]): 1.074
- Cell count per well (MRC-9 cells; [3]): 162
- Population Fragmented Nuclei (%) (MRC-9 cells; [3]): 8.86%
- Population Healthy Nuclei (%) (MRC-9 cells; [3]): 76.58%
- Population Pyknosed Nuclei (%) (MRC-9 cells; [3]): 14.56%
- Population apoptotic cell (%) (MRC-9 cells; [3]): 43.48%
- Population cell that influence microtubule strucutre (%) (MRC-9 cells; [3]): 23.97%
- Population with increased mitochondrial mass (%) (MRC-9 cells; [3]): 5.79%
- Population with membrane disruption (%) (MRC-9 cells; [3]): 0.00%
- Cell count normalized to cells treated with DMSO control (MRC-9 cells; [4]): 1.094
- Cell count per well (MRC-9 cells; [4]): 166
- Population Fragmented Nuclei (%) (MRC-9 cells; [4]): 14.56%
- Population Healthy Nuclei (%) (MRC-9 cells; [4]): 76.58%
- Population Pyknosed Nuclei (%) (MRC-9 cells; [4]): 8.86%
- Population apoptotic cell (%) (MRC-9 cells; [4]): 64.29%
- Population cell that influence microtubule strucutre (%) (MRC-9 cells; [4]): 20.66%
- Population with increased mitochondrial mass (%) (MRC-9 cells; [4]): 0.83%
- Population with membrane disruption (%) (MRC-9 cells; [4]): 0.83%
- Cell count normalized to cells treated with DMSO control (MRC-9 cells; [5]): 1.076
- Cell count per well (MRC-9 cells; [5]): 192
- Population Fragmented Nuclei (%) (MRC-9 cells; [5]): 13.26%
- Population Healthy Nuclei (%) (MRC-9 cells; [5]): 56.35%
- Population Pyknosed Nuclei (%) (MRC-9 cells; [5]): 30.39%
- Population apoptotic cell (%) (MRC-9 cells; [5]): 34.55%
- Population cell that influence microtubule strucutre (%) (MRC-9 cells; [5]): 45.10%
- Population with increased mitochondrial mass (%) (MRC-9 cells; [5]): 3.92%
- Population with membrane disruption (%) (MRC-9 cells; [5]): 7.84%
- Cell count normalized to cells treated with DMSO control (MRC-9 cells; [6]): 1.0446
- Cell count per well (MRC-9 cells; [6]): 174
- Population Fragmented Nuclei (%) (MRC-9 cells; [6]): 19.08%
- Population Healthy Nuclei (%) (MRC-9 cells; [6]): 51.97%
- Population Pyknosed Nuclei (%) (MRC-9 cells; [6]): 28.95%
- Population apoptotic cell (%) (MRC-9 cells; [6]): 25.00%
- Population cell that influence microtubule strucutre (%) (MRC-9 cells; [6]): 64.56%
- Population with increased mitochondrial mass (%) (MRC-9 cells; [6]): 13.92%
- Population with membrane disruption (%) (MRC-9 cells; [6]): 7.59%
- Cell count normalized to cells treated with DMSO control (MRC-9 cells; [7]): 0.9402
- Cell count per well (MRC-9 cells; [7]): 155
- Population Fragmented Nuclei (%) (MRC-9 cells; [7]): 16.78%
- Population Healthy Nuclei (%) (MRC-9 cells; [7]): 57.34%
- Population Pyknosed Nuclei (%) (MRC-9 cells; [7]): 25.87%
- Population apoptotic cell (%) (MRC-9 cells; [7]): 35.14%
- Population cell that influence microtubule strucutre (%) (MRC-9 cells; [7]): 70.73%
- Population with increased mitochondrial mass (%) (MRC-9 cells; [7]): 4.88%
- Population with membrane disruption (%) (MRC-9 cells; [7]): 13.41%
- Cell count per well (MRC-9 cells; [8]): 166
- Population Fragmented Nuclei (%) (MRC-9 cells; [8]): 32.10%
- Population Healthy Nuclei (%) (MRC-9 cells; [8]): 49.38%
- Population Pyknosed Nuclei (%) (MRC-9 cells; [8]): 18.52%
- Population apoptotic cell (%) (MRC-9 cells; [8]): 50.00%
- Population cell that influence microtubule strucutre (%) (MRC-9 cells; [8]): 76.25%
- Population with increased mitochondrial mass (%) (MRC-9 cells; [8]): 3.75%
- Population with membrane disruption (%) (MRC-9 cells; [8]): 8.75%
- Cell count normalized to cells treated with DMSO control (MRC-9 cells; [9]): 1.048
- Cell count per well (MRC-9 cells; [9]): 157
- Population Fragmented Nuclei (%) (MRC-9 cells; [9]): 18.47%
- Population Healthy Nuclei (%) (MRC-9 cells; [9]): 59.24%
- Population Pyknosed Nuclei (%) (MRC-9 cells; [9]): 22.29%
- Population apoptotic cell (%) (MRC-9 cells; [9]): 34.29%
- Population cell that influence microtubule strucutre (%) (MRC-9 cells; [9]): 23.66%
- Population with increased mitochondrial mass (%) (MRC-9 cells; [9]): 3.23%
- Population with membrane disruption (%) (MRC-9 cells; [9]): 0.00%
- Cell count normalized to cells treated with DMSO control (MRC-9 cells; [10]): 1.149
- Cell count per well (MRC-9 cells; [10]): 173
- Population Fragmented Nuclei (%) (MRC-9 cells; [10]): 12.35%
- Population Healthy Nuclei (%) (MRC-9 cells; [10]): 58.02%
- Population Pyknosed Nuclei (%) (MRC-9 cells; [10]): 29.63%
- Population apoptotic cell (%) (MRC-9 cells; [10]): 35.42%
- Population cell that influence microtubule strucutre (%) (MRC-9 cells; [10]): 80.85%
- Population with increased mitochondrial mass (%) (MRC-9 cells; [10]): 13.83%
- Population with membrane disruption (%) (MRC-9 cells; [10]): 4.26%
- Cell count normalized to cells treated with DMSO control (MRC-9 cells; [11]): 1.094
- Cell count per well (MRC-9 cells; [11]): 165
- Population Fragmented Nuclei (%) (MRC-9 cells; [11]): 16.25%
- Population Healthy Nuclei (%) (MRC-9 cells; [11]): 66.25%
- Population Pyknosed Nuclei (%) (MRC-9 cells; [11]): 17.50%
- Population apoptotic cell (%) (MRC-9 cells; [11]): 57.14%
- Population cell that influence microtubule strucutre (%) (MRC-9 cells; [11]): 88.68%
- Population with increased mitochondrial mass (%) (MRC-9 cells; [11]): 11.32%
- Population with membrane disruption (%) (MRC-9 cells; [11]): 1.89%
- Cell count normalized to cells treated with DMSO control (MRC-9 cells; [12]): 1.18
- Cell count per well (MRC-9 cells; [12]): 179
- Population Fragmented Nuclei (%) (MRC-9 cells; [12]): 23.84%
- Population Healthy Nuclei (%) (MRC-9 cells; [12]): 63.37%
- Population Pyknosed Nuclei (%) (MRC-9 cells; [12]): 12.79%
- Population apoptotic cell (%) (MRC-9 cells; [12]): 72.73%
- Population cell that influence microtubule strucutre (%) (MRC-9 cells; [12]): 85.32%
- Population with increased mitochondrial mass (%) (MRC-9 cells; [12]): 20.18%
- Population with membrane disruption (%) (MRC-9 cells; [12]): 0.92%
- Cell count normalized to cells treated with DMSO control (MRC-9 cells; [13]): 0.8298
- Cell count per well (MRC-9 cells; [13]): 148
- Population Fragmented Nuclei (%) (MRC-9 cells; [13]): 24.82%
- Population Healthy Nuclei (%) (MRC-9 cells; [13]): 45.39%
- Population Pyknosed Nuclei (%) (MRC-9 cells; [13]): 29.79%
- Population apoptotic cell (%) (MRC-9 cells; [13]): 47.62%
- Population cell that influence microtubule strucutre (%) (MRC-9 cells; [13]): 40.63%
- Population with increased mitochondrial mass (%) (MRC-9 cells; [13]): 9.38%
- Population with membrane disruption (%) (MRC-9 cells; [13]): 3.13%
- Cell count normalized to cells treated with DMSO control (MRC-9 cells; [14]): 0.8645
- Cell count per well (MRC-9 cells; [14]): 144
- Population Fragmented Nuclei (%) (MRC-9 cells; [14]): 24.46%
- Population Healthy Nuclei (%) (MRC-9 cells; [14]): 56.83%
- Population Pyknosed Nuclei (%) (MRC-9 cells; [14]): 18.71%
- Population apoptotic cell (%) (MRC-9 cells; [14]): 50.00%
- Population cell that influence microtubule strucutre (%) (MRC-9 cells; [14]): 86.08%
- Population with increased mitochondrial mass (%) (MRC-9 cells; [14]): 13.92%
- Population with membrane disruption (%) (MRC-9 cells; [14]): 12.66%
- Cell count normalized to cells treated with DMSO control (MRC-9 cells; [15]): 0.8917
- Cell count per well (MRC-9 cells; [15]): 147
- Population Fragmented Nuclei (%) (MRC-9 cells; [15]): 25.18%
- Population Healthy Nuclei (%) (MRC-9 cells; [15]): 59.71%
- Population Pyknosed Nuclei (%) (MRC-9 cells; [15]): 15.11%
- Population apoptotic cell (%) (MRC-9 cells; [15]): 57.14%
- Population cell that influence microtubule strucutre (%) (MRC-9 cells; [15]): 91.57%
- Population with increased mitochondrial mass (%) (MRC-9 cells; [15]): 19.28%
- Population with membrane disruption (%) (MRC-9 cells; [15]): 4.82%
- Cell count normalized to cells treated with DMSO control (MRC-9 cells; [16]): 0.964
- Cell count per well (MRC-9 cells; [16]): 157
- Population Fragmented Nuclei (%) (MRC-9 cells; [16]): 30.32%
- Population Healthy Nuclei (%) (MRC-9 cells; [16]): 59.35%
- Population Pyknosed Nuclei (%) (MRC-9 cells; [16]): 10.32%
- Population apoptotic cell (%) (MRC-9 cells; [16]): 56.25%
- Population cell that influence microtubule strucutre (%) (MRC-9 cells; [16]): 89.13%
- Population with increased mitochondrial mass (%) (MRC-9 cells; [16]): 18.48%
- Population with membrane disruption (%) (MRC-9 cells; [16]): 0.00%
